Columns and labels:
A375 cells = test: cells; settings: Homo sapiens, A-375, read-out: A375 Viability EC50
Experimental: The following day, the medium was replaced with 0.5% FBS in M3 for overnight incubation. […] The cells were incubated with compound or control for 72 hours at 37° C. under 10% CO2. Following incubation, Cell Titer Blue reagent (Promega) was added to each well containing compounds or controls, and then incubated for 3 hours at 37° C. under 10% CO2. Proliferation was measured by fluorescence with excitation at 560 nm and emission at 590 nm using SoftMax Pro.

RAF kinases [1] = target: RAF kinases (Homo sapiens, UniProt P15056); settings: read-out: BRAF WT Kd; BRAF WT
RAF kinases [2] = target: RAF kinases (Homo sapiens, UniProt P15056, V600E); settings: read-out: BRAF V600E Kd; BRAF V600E
RAF kinases [3] = target: RAF kinases (Homo sapiens, UniProt P04049); settings: read-out: RAF1 Kd; RAF1
[4] = test system: MEK1 phosphorylation in the A375 human melanoma cell line; test: cells; settings: A-375, read-out: pMEK IC50

Chain of RAF kinases (Homo sapiens, UniProt P15056, V600E) (P15056 whole entry V600E): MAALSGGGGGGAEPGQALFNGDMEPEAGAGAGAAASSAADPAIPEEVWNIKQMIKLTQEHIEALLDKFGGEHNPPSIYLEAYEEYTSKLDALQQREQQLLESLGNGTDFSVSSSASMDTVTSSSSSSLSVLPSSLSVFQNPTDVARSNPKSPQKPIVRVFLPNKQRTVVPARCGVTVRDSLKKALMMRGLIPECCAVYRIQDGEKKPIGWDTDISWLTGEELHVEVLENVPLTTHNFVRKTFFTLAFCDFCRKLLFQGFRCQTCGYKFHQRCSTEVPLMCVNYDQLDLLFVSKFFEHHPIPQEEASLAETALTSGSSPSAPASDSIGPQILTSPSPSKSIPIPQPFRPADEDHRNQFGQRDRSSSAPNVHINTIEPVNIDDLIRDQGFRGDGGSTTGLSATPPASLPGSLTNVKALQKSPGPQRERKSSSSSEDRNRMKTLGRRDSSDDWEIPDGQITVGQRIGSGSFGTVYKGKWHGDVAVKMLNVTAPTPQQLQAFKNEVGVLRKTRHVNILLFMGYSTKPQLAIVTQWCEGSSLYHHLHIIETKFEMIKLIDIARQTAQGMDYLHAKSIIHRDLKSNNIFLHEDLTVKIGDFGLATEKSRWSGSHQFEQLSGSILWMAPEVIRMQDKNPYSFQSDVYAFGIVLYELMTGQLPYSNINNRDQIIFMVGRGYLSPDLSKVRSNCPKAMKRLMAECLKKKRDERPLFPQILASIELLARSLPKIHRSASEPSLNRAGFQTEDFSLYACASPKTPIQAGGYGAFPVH
Chain of RAF kinases (Homo sapiens, UniProt P04049) (P04049 whole entry): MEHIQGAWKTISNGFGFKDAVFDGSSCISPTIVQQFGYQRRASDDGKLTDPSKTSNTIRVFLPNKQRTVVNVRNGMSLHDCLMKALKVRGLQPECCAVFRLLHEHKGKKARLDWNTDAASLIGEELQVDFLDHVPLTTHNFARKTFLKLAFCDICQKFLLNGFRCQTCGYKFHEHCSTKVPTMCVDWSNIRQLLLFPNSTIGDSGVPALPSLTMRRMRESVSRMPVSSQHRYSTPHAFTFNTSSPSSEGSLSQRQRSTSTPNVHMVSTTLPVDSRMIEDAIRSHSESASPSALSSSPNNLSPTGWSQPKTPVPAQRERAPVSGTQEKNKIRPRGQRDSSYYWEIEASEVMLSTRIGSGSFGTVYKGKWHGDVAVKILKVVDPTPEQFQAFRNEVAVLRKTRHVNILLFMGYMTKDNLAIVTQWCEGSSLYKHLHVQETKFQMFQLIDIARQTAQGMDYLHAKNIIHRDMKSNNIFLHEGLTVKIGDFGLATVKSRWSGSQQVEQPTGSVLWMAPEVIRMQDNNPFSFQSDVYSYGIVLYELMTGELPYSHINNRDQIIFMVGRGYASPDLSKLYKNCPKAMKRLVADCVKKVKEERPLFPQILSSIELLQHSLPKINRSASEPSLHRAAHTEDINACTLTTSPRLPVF
Chain of RAF kinases (Homo sapiens, UniProt P15056) (P15056 whole entry): as the sequence (P15056 whole entry V600E) above, with E600V counted along it

Compound	EC50 (A375 cells) [nM]	Kd (RAF kinases [1]) [nM]	Kd (RAF kinases [2]) [nM]	Kd (RAF kinases [3]) [nM]	IC50 [4] [nM]
COCCOc1cc2ncnc(Sc3cccc(NC(=O)Nc4cc(C(F)(F)F)nn4C)c3)c2cc1OC [Ex 239, 1-{3-[6-methoxy-7-(2-methoxyethoxy)quinazolin-4-ylthio]phenyl}-3-[1-methyl-3-(trifluoromethyl)-1H-pyrazol-5-yl]urea]	> 1000	< 250	< 250	< 250	250 to 500
COCCOc1cc2ncnc(Sc3cccc(NC(=O)Nc4cc(C(F)(F)F)nn4-c4ccc(C)cc4)c3)c2cc1OC [Ex 243, 1-{3-[6-methoxy-7-(2-methoxyethoxy)quinazolin-4-ylthio]phenyl}-3-[1-p-tolyl-3-(trifluoromethyl)-1H-pyrazol-5-yl]urea]	250 to 500	> 1000	> 1000	> 1000	250 to 500
COCCOc1cc2ncnc(Sc3cccc(NC(=O)Nc4cc(C(F)(F)F)n(-c5ccccc5)n4)c3)c2cc1OC [Ex 244, 1-{3-[6-methoxy-7-(2-methoxyethoxy)quinazolin-4-ylthio]phenyl}-3-[1-phenyl-5-(trifluoromethyl)-1H-pyrazol-3-yl]urea]	> 1000	> 1000	> 1000	> 1000	> 1000
COc1cc2c(Oc3cccc(NC(=O)Nc4ccc(OC)c(C(F)(F)F)c4)c3)ncnc2cc1OCCN1CCOCC1 [Ex 250, 1-(4-methoxy-3-(trifluoromethyl)phenyl)-3-(3-(6-methoxy-7-(2-morpholinoethoxy)quinazolin-4-yloxy)phenyl)urea]	> 1000	< 250	< 250	< 250	250 to 500
COc1cc2ncnc([S+]([O-])c3cccc(NC(=O)Nc4cc(C(C)(C)C)on4)c3)c2cc1OC (centres unmarked) [Ex 253, 1-(5-tert-butylisoxazol-3-yl)-3-(3-(6,7-dimethoxyquinazolin-4-ylsulfinyl)phenyl)urea]	> 1000	> 1000	> 1000	> 1000	500 to 1000
COc1cc2c(Oc3cccc(NC(=O)Nc4cc(C(C)(C)C)on4)c3)ncnc2cc1OCCCN1CCS(=O)(=O)CC1 [Ex 256, 1-(5-tert-butyl-isoxazol-3-yl)-3-(3-{7-[3-(1,1-dioxo-thiomorpholin-4-yl)-propoxy]-6-methoxy-quinazolin-4-yloxy}-phenyl)-urea]	< 250	< 250	< 250	< 250	< 250
COc1cc2c(Oc3cccc(NC(=O)Nc4cc(C(C)(C)F)no4)c3)ncnc2cc1O [Ex 257, 1-(3-(2-fluoropropan-2-yl)isoxazol-5-yl)-3-(3-(7-hydroxy-6-methoxyquinazolin-4-yloxy)phenyl)urea]	500 to 1000	< 250	< 250	< 250	250 to 500
COc1cc2ncnc(Oc3cccc(NC(=O)Nc4cc(C(C)(C)F)no4)c3)c2cc1O [Ex 258, 1-(3-(2-fluoropropan-2-yl)isoxazol-5-yl)-3-(3-(6-hydroxy-7-methoxyquinazolin-4-yloxy)phenyl)urea]	250 to 500	< 250	< 250	< 250	< 250
CCOc1cc2c(Oc3cccc(NC(=O)Nc4cc(C(C)(C)C(F)(F)F)on4)c3)ncnc2cc1OC [Ex 260, 1-(3-(6-ethoxy-7-methoxyquinazolin-4-yloxy)phenyl)-3-(5-(1,1,1-trifluoro-2-methylpropan-2-yl)isoxazol-3-yl)urea]	< 250	< 250	< 250	< 250	< 250
CCOc1cc2c(Sc3cccc(NC(=O)Nc4cc(C(C)(C)C(F)(F)F)on4)c3)ncnc2cc1OC [Ex 262, 1-(3-(6-ethoxy-7-methoxyquinazolin-4-ylthio)phenyl)-3-(5-(1,1,1-trifluoro-2-methylpropan-2-yl)isoxazol-3-yl)urea]	> 1000	< 250	< 250	< 250	< 250
COc1cc2c(Oc3cccc(NC(=O)Nc4cc(C(C)(C)C(F)(F)F)on4)c3)ncnc2cc1O [Ex 263, 1-(3-(7-hydroxy-6-methoxyquinazolin-4-yloxy)phenyl)-3-(5-(1,1,1-trifluoro-2-methylpropan-2-yl)isoxazol-3-yl)urea]	500 to 1000	< 250	< 250	< 250	< 250
COc1cc2ncnc(Oc3cccc(NC(=O)Nc4cc(C(C)(C)C(F)(F)F)on4)c3)c2cc1O [Ex 264, 1-(3-(6-hydroxy-7-methoxyquinazolin-4-yloxy)phenyl)-3-(5-(1,1,1-trifluoro-2-methylpropan-2-yl)isoxazol-3-yl)urea]	< 250	< 250	< 250	< 250	< 250
COc1cc2ncnc(Oc3cccc(NC(=O)Nc4cc(C(C)(C)C(F)(F)F)no4)c3)c2cc1OC [Ex 267, 1-(3-(6,7-dimethoxyquinazolin-4-yloxy)phenyl)-3-(3-(1,1,1-trifluoro-2-methylpropan-2-yl)isoxazol-5-yl)urea]	500 to 1000	< 250	< 250	< 250	< 250
COc1cc2ncnc(Sc3cccc(NC(=O)Nc4cc(C(C)(C)C(F)(F)F)no4)c3)c2cc1OC [Ex 268, 1-(3-(6,7-dimethoxyquinazolin-4-ylthio)phenyl)-3-(3-(1,1,1-trifluoro-2-methylpropan-2-yl)isoxazol-5-yl)urea]	500 to 1000	< 250	< 250	< 250	< 250
COc1cc2ncnc(Oc3cc(NC(=O)Nc4cc(C(C)(C)F)no4)c(F)cc3F)c2cc1OC [Ex 269, 1-(5-(6,7-dimethoxyquinazolin-4-yloxy)-2,4-difluorophenyl)-3-(3-(2-fluoropropan-2-yl)isoxazol-5-yl)urea]	< 250	< 250	< 250	< 250	< 250
COc1cc2ncnc(Oc3cc(NC(=O)Nc4cc(C(C)(C)C)on4)c(F)cc3F)c2cc1OC [Ex 270, 1-(5-tert-butylisoxazol-3-yl)-3-(5-(6,7-dimethoxyquinazolin-4-yloxy)-2,4-difluorophenyl)urea]	< 250	< 250	< 250	< 250	< 250
COc1cc2ncnc(Oc3cccc(NC(=O)Nc4cccc(C(C)(C)C#N)c4)c3)c2cc1OC [Ex 278, 1-(3-(2-cyanopropan-2-yl)phenyl)-3-(3-(6,7-dimethoxyquinazolin-4-yloxy)phenyl)urea]	500 to 1000	< 250	< 250	< 250	250 to 500
COc1cc2ncnc(Sc3cccc(NC(=O)Nc4cccc(C(C)(C)C#N)c4)c3)c2cc1OC [Ex 279, 1-(3-(2-cyanopropan-2-yl)phenyl)-3-(3-(6,7-dimethoxyquinazolin-4-ylthio)phenyl)urea]	> 1000	< 250	< 250	< 250	250 to 500
COCCOc1cc2ncnc(Oc3cccc(NC(=O)Nc4cccc(C(C)(C)C#N)c4)c3)c2cc1OC [Ex 280, 1-(3-(2-cyanopropan-2-yl)phenyl)-3-(3-(6-methoxy-7-(2-methoxyethoxy)quinazolin-4-yloxy)phenyl)urea]	> 1000	< 250	< 250	< 250	500 to 1000
COc1cc2ncnc(Sc3cccc(NC(=O)Nc4cc(C(C)(C)C)nn4-c4ccc(C)cc4C)c3)c2cc1OC [Ex 284, 1-(3-tert-butyl-1-(2,4-dimethylphenyl)-1H-pyrazol-5-yl)-3-(3-(6,7-dimethoxyquinazolin-4-ylthio)phenyl)urea]	> 1000	> 1000	> 1000	> 1000	< 250
COc1cc2ncnc(Oc3cccc(NC(=O)Nc4cc(C(C)(C)F)no4)c3F)c2cc1OC [Ex 296, 1-(3-(6,7-dimethoxyquinazolin-4-yloxy)-2-fluorophenyl)-3-(3-(2-fluoropropan-2-yl)isoxazol-5-yl)urea]	> 1000	< 250	< 250	< 250	> 1000
COc1cc2ncnc(Oc3cccc(NC(=O)Nc4cc(C(C)(CF)CF)on4)c3F)c2cc1OC [Ex 297, 1-(5-(1,3-difluoro-2-methylpropan-2-yl)isoxazol-3-yl)-3-(3-(6,7-dimethoxyquinazolin-4-yloxy)-2-fluorophenyl)urea]	250 to 500	< 250	< 250	< 250	250 to 500
COc1cc2ncnc(Oc3ccc(Cl)c(NC(=O)Nc4cc(C(C)(C)C)nn4-c4ccc(C)cc4)c3)c2cc1OC [Ex 298, 1-(3-tert-butyl-1-p-tolyl-1H-pyrazol-5-yl)-3-(2-chloro-5-(6,7-dimethoxyquinazolin-4-yloxy)phenyl)urea]	< 250	> 1000	> 1000	> 1000	< 250
COc1cc2ncnc(Oc3ccc(Cl)c(NC(=O)Nc4cc(C(C)(C)C)nn4-c4ccccc4)c3)c2cc1OC [Ex 301, 1-(3-tert-butyl-1-phenyl-1H-pyrazol-5-yl)-3-(2-chloro-5-(6,7-dimethoxyquinazolin-4-yloxy)phenyl)urea]	250 to 500	> 1000	> 1000	> 1000	< 250
COc1cc2ncnc(Oc3ccc(F)c(NC(=O)Nc4cc(C(C)(C)C)on4)c3)c2cc1OC [Ex 367, 1-(5-tert-butylisoxazol-3-yl)-3-(5-(6,7-dimethoxyquinazolin-4-yloxy)-2-fluorophenyl)urea]	250 to 500	< 250	< 250	< 250	< 250

From patent US8618289B2 (Ambit Biosciences Corporation, priority 2008, dated 2013)
